What all share (type): in vivo
Assay [1] concerns Cotton aphid (Aphis gossypii, mixed life stages). The experiment in a line: Cotton aphid (Aphis gossypii, mixed life stages) foliar spray on infested cotton plants. The note with it: 120 h, after 5 days, read-out: mortality in comparison with untreated controls. The method, then:
II.1 Cotton Aphid (Aphis gossypii, Mixed Life Stages)
(§1) The active compounds were formulated in cyclohexanone as a 10,000 ppm solution supplied in 1.3 ml ABgene® tubes. These tubes were inserted into an automated electrostatic sprayer equipped with an atomizing nozzle and they served as stock solutions for which lower dilutions were made in 50% acetone:50% water (v/v). A nonionic surfactant (Kinetic®) was included in the solution at a volume of 0.01% (v/v).
Cotton plants at the cotyledon stage were infested with aphids prior to treatment by placing a heavily infested leaf from the main aphid colony on top of each cotyledon. Aphids were allowed to transfer overnight to accomplish an infestation of 80-100 aphids per plant and the host leaf was removed. The infested plants were then sprayed by an automated electrostatic plant sprayer equipped with an atomizing spray nozzle. The plants were dried in the sprayer fume hood, removed from the sprayer, and then maintained in a growth room under fluorescent lighting in a 24-hr photoperiod at 25° C. and 20-40% relative humidity. Aphid mortality on the treated plants, relative to mortality on untreated control plants, was determined after 5 days.

Assay [2] has as its system Green peach aphid (Myzus persicae, mixed life stages). The experiment in a line: Green peach aphid (Myzus persicae, mixed life stages) foliar spray on infested bell pepper plants. The note with it: 120 h, after 5 days, read-out: mortality in comparison with untreated controls. The method, then: II.2 Green Peach Aphid (Myzus persicae, Mixed Life Stages)
as §1
Bell pepper plants at the first true-leaf stage were infested prior to treatment by placing heavily infested leaves from the main colony on top of the treatment plants. Aphids were allowed to transfer overnight to accomplish an infestation of 30-50 aphids per plant and the host leaves were removed. The infested plants were then sprayed by an automated electrostatic plant sprayer equipped with an atomizing spray nozzle. The plants were dried in the sprayer fume hood, removed, and then maintained in a growth room under fluorescent lighting in a 24-hr photoperiod at 25° C. and 20-40% relative humidity. Aphid mortality on the treated plants, relative to mortality on untreated control plants, was determined after 5 days.

The test system of assay [3] is Cowpea aphid (Aphis craccivora). The experiment in a line: Cowpea aphid (Aphis craccivora) spray on potted cowpea plants. As to conditions: assessed after 24, 72, and 120 hours, read-out: mortality in comparison with untreated controls. The method, then: II.3 Cowpea Aphid (Aphis craccivora)
The active compounds were formulated in 50:50 (vol:vol) acetone:water. The test solution was prepared at the day of use.
Potted cowpea plants colonized with 100-150 aphids of various stages were sprayed after the pest population had been recorded. Population reduction was assessed after 24, 72, and 120 hours.

Assay [4] deals with Vetch aphid (Megoura viciae). Description: Vetch aphid (Megoura viciae) bean leaf disk microtiter plate test. The note with it: foliar, 144 h, test solution 2500 mg/L, bean leaf disks, 6 days. The method, then: II.4 Vetch Aphid (Megoura viciae)
The active compounds were formulated in 1:3 (vol:vol) DMSO:water with different concentrations of formulated compounds.
Bean leaf disks were placed into microtiterplates filled with 0.8% agar-agar and 2.5 ppm OPUS™. The leaf disks were sprayed with 2.5 μl of the test solution and 5 to 8 adult aphids were placed into the microtiterplates which were then closed and kept at 23±1° C. and 50±5% relative humidity under fluorescent light for 6 days. Mortality was assessed on the basis of vital, reproduced aphids. Aphid mortality and fecundity was then visually assessed.

In assay [5] the test system is green peach aphid (Myzus persicae). Description: Green peach aphid (Myzus persicae) systemic test, artificial diet under membrane. The note with it: 72 h, 2500 ppm in aphid diet, 3 days, read-out: mortality in comparison with untreated controls. The source says: II.6 Activity Against Green Peach Aphid (Myzus persicae)
For evaluating control of green peach aphid (Myzus persicae) through systemic means the test unit consisted of 96-well-microtiter plates containing liquid artificial diet under an artificial membrane.
The compounds were formulated using a solution containing 75% v/v water and 25% v/v DMSO. Different concentrations of formulated compounds were pipetted into the aphid diet, using a custom built pipetter, at two replications. After application, 5 to 8 adult aphids were placed on the artificial membrane inside the microtiter plate wells. The aphids were then allowed to suck on the treated aphid diet and incubated at about 23+1° C. and about 50+5% relative humidity for 3 days. Aphid mortality and fecundity was then visually assessed.

For assay [6], the system named is Silverleaf whitefly (Bemisia argentifolii, adult). Description: Silverleaf whitefly (Bemisia argentifolii, adult) on sprayed cotton plants. As to conditions: 72 h, spray on cotton plants, 3 days after treatment, read-out: mortality in comparison with untreated controls. As for the experimental part: II.7 Silverleaf Whitefly (Bemisia argentifolii, Adult)
as §1
Cotton plants at the cotyledon stage (one plant per pot) were sprayed by an automated electrostatic plant sprayer equipped with an atomizing spray nozzle. The plants were dried in the sprayer fume hood and then removed from the sprayer. Each pot was placed into a plastic cup and 10 to 12 whitefly adults (approximately 3-5 days old) were introduced. The insects were collected using an aspirator and 0.6 cm, nontoxic Tygon® tubing (R-3603) connected to a barrier pipette tip. The tip, containing the collected insects, was then gently inserted into the soil containing the treated plant, allowing insects to crawl out of the tip to reach the foliage for feeding. Cups were covered with a reusable screened lid (150-micron mesh polyester screen PeCap from Tetko, Inc.). […] Mortality was assessed 3 days after treatment, compared to untreated control plants.

Structures are written as SMILES.

For the compound `Cc1c(C(=O)/N=c2\ccn(C)nc2)cnn1CC(F)(F)F` [Compound 7, 5-methyl-1-(2,2,2-trifluoro-ethyl)-1H-pyrazole-4-carboxylic acid [1-methyl-1H-pyridazin-(4E)-ylidene]-amide], the mortality at 300 ppm in assay [1] is at least 75%; in assay [2], at least 75%; in assay [3] it was at least 90%; in assay [6] it was at least 75%. This compound came in with a mortality at 2500 µg/mL in assay [4] of at least 90%. The mortality at 2500 ppm in assay [5] came to 100%.

The values are drawn from US9247745B2, “Substituted pyridazines for controlling invertebrate pests” (BASF SE, priority 2010, dated 2016).
